Patent US20250136612A1, “4',5'-DIHYDROSPIRO[PIPERIDINE-4,7'-THIENO[2,3-C]PYRAN] DERIVATIVES AS INHIBITORS OF APOL1 AND METHODS OF USING SAME” (VERTEX PHARMACEUTICALS INCORPORATED, priority 2022, published 2025)

These molecules were tested against T1, APOL1 (Homo sapiens, UniProt O14791) (assay: MultiTox-Fluor Multiplex Cytotoxicity Assay in tet-inducible APOL1 T-REx-HEK293 cells). Settings: 50 ng/mL tet, 24 hours, ratio of dead to live cells, read-out: IP50 (i.e., IC50 for cell proliferation).
T1 sequence (O14791 1-398 S342G/I384M): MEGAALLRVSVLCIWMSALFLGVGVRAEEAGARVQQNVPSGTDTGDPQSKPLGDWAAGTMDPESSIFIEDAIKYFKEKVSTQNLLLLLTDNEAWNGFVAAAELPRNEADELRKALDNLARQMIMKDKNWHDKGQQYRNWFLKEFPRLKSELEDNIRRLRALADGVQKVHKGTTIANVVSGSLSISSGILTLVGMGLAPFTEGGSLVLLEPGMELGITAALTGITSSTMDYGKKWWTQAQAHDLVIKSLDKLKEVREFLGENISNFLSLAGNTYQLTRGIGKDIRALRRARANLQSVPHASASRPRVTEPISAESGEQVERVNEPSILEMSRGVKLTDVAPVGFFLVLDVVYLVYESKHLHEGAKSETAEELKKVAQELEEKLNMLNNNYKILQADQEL
Type: cell-based
Description: The MultiTox-Fluor Multiplex Cytotoxicity Assay is a single-reagent-addition, homogeneous, fluorescence assay that measures the number of live and dead cells simultaneously in culture wells. The assay measures cell viability and cytotoxicity by detecting two distinct protease activities. The live-cell protease activity is restricted to intact viable cells and is measured using a fluorogenic, cell-permeant peptide glycyl-phenylalanylamino fluorocoumarin (GF-AFC) substrate. The substrate enters intact cells, where it is cleaved to generate a fluorescent signal proportional to the number of living cells. […] A second, cell-impermeant, fluorogenic peptide substrate (bis-AAF-R110 Substrate) is used to measure dead-cell protease that has been released from cells that have lost membrane integrity. A ratio of dead to live cells is used to normalize data.
Briefly, the tet-inducible transgenic APOL1 T-REx-HEK293 cell lines were incubated with 50 ng/mL tet to induce APOL1 in the presence of 3-(2-(4-fluorophenyl)-1H-indol-3-yl)-N-((3S,4R)-4-hydroxy-2-oxopyrrolidin-3-yl)propenamide at 10.03, 3.24, 1.13, 0.356, 0.129, 0.042, 0.129, 0.0045, 0.0015, 0.0005 μM in duplicate for 24 hours in a humidified 37° C. incubator. The MultiTox reagent was added to each well and placed back in the incubator for an additional 30 minutes. The plate was read on the EnVision plate reader. A ratio of dead to live cells was used to normalize, and data was imported, analyzed, and fit using Genedata Screener (Basel, Switzerland) software. Data was normalized using percent of control, no tet (100% viability), and 50 ng/mL tet treated (0% viability),and fit using Smart Fit. The reagents, methods, and complete protocol for the MultiTox assay are described below.
Human embryonic kidney (HEK293) cell lines containing a tet-inducible expression system (T-REx™; Invitrogen, Carlsbad, CA) and Adeno-associated virus site 1 pAAVS1-Puro-APOL1 G0 or pAAVS1-Puro-APOL1 G1 or pAAVS1-Puro-APOL1 G2 Clones G0 DC2.13, G1 DC3.25, and G2 DC4.44 were grown in a T-225 flask at ˜90% confluency in cell growth media (DMEM, 10% Tet-free FBS, 2 mM L-glutamine, 100 Units/mL penicillin-streptomycin, 5 μg/mL blasticidin S HCl, 1 μg/mL puromycin dihydrochloride). Cells were washed with DPBS and then trypsinized to dissociate from the flask. Media was used to quench the trypsin, cells were then pelleted at 200 g and resuspended in fresh cell assay media (DMEM, 2% Tet-free FBS, 2 mM L-glutamine, 100 Units/mL penicillin-streptomycin). Cells were counted and diluted to 1.17×10^6 cells/mL. 20 μL of cells (23,400/well) were dispensed in every well of a 384-well Poly-D-Lysine coated plate using the Multidrop dispenser. The plates were then incubated at room temperature for one hour.
Tetracycline is needed to induce APOL1 expression. 1 mg/mL tet stock in water was diluted to 250 ng/mL (5×) in cell assay media. 60 μL of cell assay media (no tet control) was dispensed in columns 1 and 24, and 60 μL of 5×tet in 384-PP-round bottom plate was dispensed in columns 2 to 23 with the Multidrop dispenser.
Assay ready plates from the Global Compound Archive were ordered using template 384_APOL1Cell_DR10n2_50 uM_v3. Compounds were dispensed at 200 nL in DMSO. The final top concentration was 10 μM with a 10 point 3-fold dilution in duplicate in the MultiTox assay.
20 μL was transferred from the 5×tet plate to the ARP and mixed, then 5 μL of 5×tet and the compounds were transferred to the cell plate and mixed using the Bravo. The cell plate was placed in the humidified 37° C. 5% CO2 incubator for 24 hours.
The MultiTox-Fluor Multiplex Cytotoxicity Assay was performed in accordance with the manufacturer's protocol. After cells were incubated with tet and compound for 24 hours, 25 μL of 1×MultiTox reagent was added to each well using the Multidrop dispenser; the plates were placed on a plate shaker (600 rpm) for 2 minutes, then centrifuged briefly and placed back in the 37° C. incubator for 30 minutes. […]
`Fc1ccccc1-n1cc([C@@H]2C[C@]3(CCN2)OCCc2cc(Cl)sc23)nn1` [Compound 74] gave an IC50 of 500 to 1000 nM. Molecule `Cn1ncc(C2CC3(CCN2)OCCc2cc(Cl)sc23)n1` (stereo not drawn) [Compound 17] has an IC50 of 500 to 1000 nM. `OCCn1cc(C2CC3(CCN2)OCCc2cc(Cl)sc23)cn1` (stereo not drawn) [Compound 14] was tested, and the IC50 was 500 to 1000 nM. With `Cn1cc([C@@H]2C[C@]3(CCN2)OCC(C)(O)c2cc(Cl)sc23)nn1` (single isomer, unassigned) [Compound 37] the IC50 was 500 to 1000 nM. In the case of `Cn1cc([C@@H]2C[C@]3(CCN2)OCCc2cc(Cl)sc23)cn1` (single isomer, unassigned) [Compound 24], the IC50 is reported as < 100 nM. Work on `Clc1cc2c(s1)C1(CCNC(C3CC3)C1)OCC2` (stereo not drawn) [Compound 19] yielded an IC50 of 500 to 1000 nM. For `Cn1cc([C@@H]2C[C@]3(CCN2)OCC(O)c2cc(Cl)sc23)nn1` (stereo partly drawn) [Compound 35, (2S,4S)-2′-chloro-2-(1-methyl-1H-1,2,3-triazol-4-yl)-4′,5′-dihydrospiro[piperidine-4,7′-thieno[2,3-c]pyran]-4′-ol], the IC50 was 100 to 500 nM. `Cn1cc([C@@H]2C[C@]3(CCN2)OCC(=O)c2cc(Cl)sc23)nn1` [Compound 41, (2S,4S)-2′-chloro-2-(1-methyltriazol-4-yl)spiro[piperidine-4,7′-thieno[2,3-c]pyran]-4′-one] was tested, and the IC50 was 100 to 500 nM. With `CCc1cc2c(s1)CCOC21CCNC(c2cn[nH]c2)C1` (stereo not drawn) [Compound 13] the IC50 was 500 to 1000 nM. In the case of `Clc1cc2c(s1)[C@@]1(CCN[C@H](c3cn(-c4ccccn4)nn3)C1)OCC2` [Compound 69], the IC50 is reported as 100 to 500 nM. `CN(C)C(=O)c1ccc(-n2cc([C@@H]3C[C@]4(CCN3)OCCc3cc(Cl)sc34)nn2)cc1` [Compound 68] showed an IC50 of 100 to 500 nM. `[2H]C1([2H])CO[C@]2(CCN[C@H](c3cn(C)nn3)C2)c2sc(Cl)cc21` [Compound 43, (2'S, 7S)-2-chloro-4,4-dideuterio-2′-(1-methyltriazol-4-yl)spiro[5H-thieno[2,3-c]pyran-7,4′-piperidine]] was tested, and the IC50 was 100 to 500 nM. Molecule `COc1ccccc1-n1cc([C@@H]2C[C@]3(CCN2)OCCc2cc(Cl)sc23)nn1` [Compound 66] has an IC50 of 100 to 500 nM. `O=C1NCc2ccc(-n3cc([C@@H]4C[C@]5(CCN4)OCCc4cc(Cl)sc45)nn3)cc21` [Compound 56] was tested, and the IC50 was < 100 nM. `Cn1cc(C2CC3(CCN2)OCC(O)c2cc(Br)sc23)nn1` (single isomer, unassigned) [Compound 45, 2-bromo-2′-(1-methyltriazol-4-yl)spiro[4,5-dihydrothieno[2,3-c]pyran-7,4′-piperidine]-4-ol] was tested, and the IC50 was < 100 nM. With `Cn1cc([C@@H]2CC3(CCN2)OCCc2c3sc(C(F)(F)F)c2CO)nn1` (stereo partly drawn) [Compound 51, ((2S)-2-(1-methyl-1H-1,2,3-triazol-4-yl)-2′-(trifluoromethyl)-4′,5′-dihydrospiro[piperidine-4,7′-thieno[2,3-c]pyran]-3′-yl)methanol] the IC50 was < 100 nM. `CCc1cc2c(s1)CCOC21CCNC(c2ccc(F)cc2)C1` (single isomer, unassigned) [Compound 78, 2-ethyl-2′-(4-fluorophenyl)spiro[6,7-dihydrothieno[3,2-c]pyran-4,4′-piperidine]] gave an IC50 of 500 to 1000 nM. `Cn1cc([C@@H]2C[C@]3(CCN2)OCCc2cc(Cl)sc23)nn1` (single isomer, unassigned) [Compound 2] showed an IC50 of 100 to 500 nM. For `Cn1cc([C@@H]2C[C@]3(CCN2)OCCc2cc(I)sc23)nn1` [Compound 33, (2S,4S)-2′-iodo-2-(1-methyl-1H-1,2,3-triazol-4-yl)-4′,5′-dihydrospiro[piperidine-4,7′-thieno[2,3-c]pyran]], the IC50 was < 100 nM. Work on `CS(=O)(=O)CCn1cc([C@@H]2C[C@]3(CCN2)OCCc2cc(Cl)sc23)nn1` [Compound 73] yielded an IC50 of 500 to 1000 nM. For `CCc1cc2c(s1)C1(CCNC(c3cn(C)nn3)C1)OCC2` (stereo not drawn) [Compound 4], the IC50 was 100 to 500 nM. In the case of `Cn1cc(C2CC3(CCN2)OCCc2cc(C(F)(F)F)sc23)nn1` (stereo not drawn) [Compound 5], the IC50 is reported as < 100 nM. With `CCc1cc2c(s1)C(C)COC21CCNC(c2cn(C)nn2)C1` (stereo not drawn) [Compound 9] the IC50 was 100 to 500 nM. `CCc1cc2c(s1)C1(CCNC(c3cc(C)no3)C1)OCC2` (stereo not drawn) [Compound 6] was tested, and the IC50 was < 100 nM. With `Cn1cc([C@@H]2C[C@]3(CCN2)OCCc2cc(Br)sc23)nn1` [Compound 22] the IC50 was < 100 nM. `CCc1cc2c(s1)CCOC21CCNC(c2cnn(CCS(C)(=O)=O)c2)C1` (stereo not drawn) [Compound 7] was tested, and the IC50 was 100 to 500 nM. For `NC(=O)c1cccc(-n2cc([C@@H]3C[C@]4(CCN3)OCCc3cc(Cl)sc34)nn2)c1` [Compound 54, 3-(4-((2S,4S)-2′-chloro-4′,5′-dihydrospiro[piperidine-4,7′-thieno[2,3-c]pyran]-2-yl)-1H-1,2,3-triazol-1-yl)benzamide], the IC50 was < 100 nM. Molecule `Cc1ncc(C2CC3(CCN2)OCCc2cc(Cl)sc23)cn1` (stereo not drawn) [Compound 1, 2-chloro-2′-(2-methylpyrimidin-5-yl)spiro[4,5-dihydrothieno[2,3-c]pyran-7,4′-piperidine]] has an IC50 of 100 to 500 nM. In the case of `Cn1cc([C@@H]2C[C@]3(CCN2)OCC(O)(C(F)F)c2cc(Cl)sc23)nn1` (single isomer, unassigned) [Compound 39], the IC50 is reported as 500 to 1000 nM. `Cn1cc([C@@H]2C[C@]3(CCN2)OCC(O)(C(F)F)c2cc(Cl)sc23)nn1` (single isomer, unassigned) [Compound 40] was tested, and the IC50 was < 100 nM. Work on `Cn1cc([C@@H]2C[C@]3(CCN2)OCCc2cc(C4CC4)sc23)nn1` (single isomer, unassigned) [Compound 31] yielded an IC50 of 100 to 500 nM. Molecule `CCc1cc2c(s1)CCOC21CCNC(C2CC2)C1` (single isomer, unassigned) [Compound 29, 2′-cyclopropyl-2-ethyl-spiro[6,7-dihydrothieno[3,2-c]pyran-4,4′-piperidine]] has an IC50 of 500 to 1000 nM. Work on `Cc1cc([C@@H]2C[C@]3(CCN2)OCC(O)c2cc(Cl)sc23)on1` (stereo partly drawn) [Compound 34, (2S,4S)-2′-chloro-2-(3-methylisoxazol-5-yl)-4′,5′-dihydrospiro[piperidine-4,7′-thieno[2,3-c]pyran]-4′-ol] yielded an IC50 of 100 to 500 nM. `Cc1cc([C@@H]2C[C@]3(CCN2)OCCc2cc(Cl)sc23)on1` (single isomer, unassigned) [Compound 25] gave an IC50 of 100 to 500 nM. `Cn1cc(C2CC3(CCN2)OCC(O)c2cc(Br)sc23)nn1` (single isomer, unassigned) [Compound 44, 2-bromo-2′-(1-methyltriazol-4-yl)spiro[4,5-dihydrothieno[2,3-c]pyran-7,4′-piperidine]-4-ol] gave an IC50 of 500 to 1000 nM. `COc1ccc(-n2cc([C@@H]3C[C@]4(CCN3)OCCc3cc(Cl)sc34)nn2)cc1` [Compound 67] showed an IC50 of 100 to 500 nM. `COCCn1cc([C@@H]2C[C@]3(CCN2)OCCc2cc(Cl)sc23)nn1` [Compound 76] was tested, and the IC50 was 500 to 1000 nM. `Cn1cc([C@@H]2C[C@]3(CCN2)OCC(C)(O)c2cc(Cl)sc23)nn1` (single isomer, unassigned) [Compound 38] gave an IC50 of 100 to 500 nM. Molecule `CN1Cc2ccc(-n3cc([C@@H]4C[C@]5(CCN4)OCCc4cc(Cl)sc45)nn3)cc2C1=O` [Compound 62] has an IC50 of 100 to 500 nM.
